# Results as given in BindingDB's records for doi:10.1021/cb800306y (Stony Brook University, 2009).
# Columns and labels:
# [1] = molecular target: T1, Enoyl-[acyl-carrier-protein] reductase [NADH] (Francisella tularensis subsp. novicida (strain U112), UniProt A0Q794); experiment: Enzyme Inhibition Assay; conditions: pH 8; 25 °C
# T1 sequence (A0Q794 whole entry): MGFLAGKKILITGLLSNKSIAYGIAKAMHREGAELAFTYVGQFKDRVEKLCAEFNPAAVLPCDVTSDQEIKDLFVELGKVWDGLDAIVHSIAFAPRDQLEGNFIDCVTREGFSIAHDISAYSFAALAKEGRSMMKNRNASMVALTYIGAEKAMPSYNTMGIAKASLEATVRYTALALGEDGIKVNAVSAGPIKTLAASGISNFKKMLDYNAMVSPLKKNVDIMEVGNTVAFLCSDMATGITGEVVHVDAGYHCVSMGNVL
# Text: Inhibition constant binding to E-NADH
# [2] = molecular target: T1, Enoyl-[acyl-carrier-protein] reductase [NADH]; experiment: Enzyme Inhibition Assay; conditions: pH 8; 25 °C; remark: listed apart in the source
# Text: Inhibition constant binding to E-NAD+
Structure (SMILES),Ki [1] [nM],Ki [2] [nM]
Oc1cc(Cl)ccc1Oc1ccc(Cl)cc1Cl,5000,0.051
CCCCCCCCc1ccc(Oc2ccccc2)c(O)c1 [5-Octyl-2-phenoxy-phenol],192,23.6
CCCCCCc1ccc(Oc2ccccc2)c(O)c1 [5-hexyl-2-phenoxyphenol],331,2.7
CCc1ccc(Oc2ccccc2)c(O)c1 [PT01],311,2.1
CCCc1ccc(Oc2ccccc2)c(O)c1 [PT02],696,0.44
Oc1cc(Cl)ccc1Oc1ccccc1 [PT52],308,1.9
Cc1ccc(Oc2ccccc2)c(O)c1 [PT53],247,1.9
Oc1cc(F)ccc1Oc1ccccc1 [PT55],,289
